The EC50 is the concentration that produces a half-maximal response.

The source made the active and inactive calls. No stated cut-off is given here; in the data, actives have a measured EC50 and inactives only a lower limit.

The target of one assay is Luciferin 4-monooxygenase (Photinus pyralis, UniProt P08659). The assay is described as follows: firefly luciferase enzyme inhibitors, dose response, biochemical, luminescence (AID 1891).
Chain of Luciferin 4-monooxygenase (P08659 whole entry): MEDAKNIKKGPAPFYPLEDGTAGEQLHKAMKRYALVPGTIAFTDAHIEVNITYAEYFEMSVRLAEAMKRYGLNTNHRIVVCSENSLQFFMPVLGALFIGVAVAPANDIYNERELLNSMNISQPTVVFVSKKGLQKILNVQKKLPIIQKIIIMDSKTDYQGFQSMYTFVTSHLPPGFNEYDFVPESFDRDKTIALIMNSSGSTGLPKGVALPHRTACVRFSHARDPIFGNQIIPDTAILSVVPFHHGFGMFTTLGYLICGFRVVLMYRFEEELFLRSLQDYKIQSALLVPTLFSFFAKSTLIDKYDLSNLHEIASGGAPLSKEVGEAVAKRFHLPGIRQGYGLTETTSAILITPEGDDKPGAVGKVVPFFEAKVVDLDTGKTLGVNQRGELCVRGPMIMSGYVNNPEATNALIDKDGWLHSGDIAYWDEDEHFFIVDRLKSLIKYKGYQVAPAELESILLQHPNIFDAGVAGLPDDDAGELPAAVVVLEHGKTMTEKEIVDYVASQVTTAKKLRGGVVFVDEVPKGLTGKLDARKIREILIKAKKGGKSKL
For the molecule `CC(C)n1nc(C(=O)Nc2ccccc2N2CCOCC2)c2ccccc2c1=O`, the EC50 was > 112 µM (not active).
The same measure, in the same setting: in the case of `COC(=O)c1cccc([N+](=O)[O-])c1CN1CCCC(C(N)=O)C1` (configuration not stated) it was > 112 µM (not active); in that of `O=C(COc1ccc(Cl)cc1)Nc1ccc(Cc2ccncc2)cc1`, > 112 µM (not active).
For the molecule `COc1cccc(Oc2c(C)oc3c(CN4CCCCC4)c(O)ccc3c2=O)c1`, the EC50 was > 112 µM (not active).
Turning to `COC(=O)C1=C(C)N=C2SCCC(=O)N2C1c1ccc(OC(=O)c2ccco2)cc1` (configuration not stated), the concentration for a half-maximal effect (EC50) is > 112 µM (not active).
For `CCS(=O)(=O)c1ccc2oc(Nc3ccccc3Cl)nc2c1`, the EC50 is 1.75 µM (active).
With `O=C(Nc1ccc(Cl)cn1)c1ccc(-c2ccc(Cl)c(Cl)c2)o1`, the EC50 is given as > 112 µM (not active).

Another assay deals with T1, Zinc finger protein mex-5 (Caenorhabditis elegans, UniProt Q9XUB2).
T1 sequence (Q9XUB2 whole entry): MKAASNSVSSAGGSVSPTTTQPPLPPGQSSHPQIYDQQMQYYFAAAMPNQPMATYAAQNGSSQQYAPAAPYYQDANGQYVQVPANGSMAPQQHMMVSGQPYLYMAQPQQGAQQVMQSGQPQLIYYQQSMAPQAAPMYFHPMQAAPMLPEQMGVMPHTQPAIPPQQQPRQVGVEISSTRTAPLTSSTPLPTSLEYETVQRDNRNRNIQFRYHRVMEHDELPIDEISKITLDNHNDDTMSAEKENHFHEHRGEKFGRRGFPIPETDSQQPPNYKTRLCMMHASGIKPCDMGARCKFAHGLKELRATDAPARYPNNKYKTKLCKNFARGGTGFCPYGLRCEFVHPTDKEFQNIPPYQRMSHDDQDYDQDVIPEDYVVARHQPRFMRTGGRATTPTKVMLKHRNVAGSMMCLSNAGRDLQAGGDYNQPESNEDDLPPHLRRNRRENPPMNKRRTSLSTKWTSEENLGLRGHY
The assay is described as follows: MEX-5/TCR-2 RNA interaction inhibitors, dose response, biochemical, C. elegans, fluorescence polarization (AID 1960). (Fluorescence polarisation rises when a labelled molecule tumbles more slowly, as on binding a larger partner.)
Turning to `O=C(CN1CCC(n2nnc3cc(F)ccc32)CC1)NCCc1ccccc1`, the EC50 is recorded as > 300 µM (not active).
Turning to `C=CCOc1cccc(C2C(C(=O)c3ccc(C)o3)=C(O)C(=O)N2c2nnc(C)s2)c1` (configuration not stated), the EC50 is 210 µM (active).
As for `COc1ccc(Nc2nc3ccccc3nc2NS(=O)(=O)c2cccs2)c(OC)c1`, the EC50 was 49.7 µM (inconclusive).
Still for that read-out and setting: with `CCOc1cc(/C=C(\C#N)c2nc3ccccc3[nH]2)ccc1OC(C)C(=O)O` (configuration not stated) the figure was 50.5 µM (active); with `N#Cc1cc(NC2CCCC2)c([N+](=O)[O-])cc1C#N`, 41.8 µM (active).
With `CC1(C)CC(=O)C2=C(C1)OC(N)=C(C#N)C21C(=O)N(CN2CCOCC2)c2ccccc21` (configuration not stated), the EC50 is reported as > 300 µM (not active).
Same read-out and setting: with `CCC(C)(C)NC(=O)C(c1cccn1C)N(C(=O)Cn1nnc2ccccc21)c1ccc(OC)cc1` (configuration not stated) the figure was > 300 µM (not active); with `CN1C(=O)C(=Cc2cc3ccccc3nc2O)C(=O)N(C)C1=O`, > 300 µM (not active); with `COc1cccc(N2C(=O)NC(=O)/C(=C/c3ccc4c(c3)Cc3ccccc3-4)C2=O)c1`, > 300 µM (not active).

The target in a further assay is T2, RNA-binding protein pos-1 (Caenorhabditis elegans, UniProt G5EF15).
T2 sequence (G5EF15 whole entry): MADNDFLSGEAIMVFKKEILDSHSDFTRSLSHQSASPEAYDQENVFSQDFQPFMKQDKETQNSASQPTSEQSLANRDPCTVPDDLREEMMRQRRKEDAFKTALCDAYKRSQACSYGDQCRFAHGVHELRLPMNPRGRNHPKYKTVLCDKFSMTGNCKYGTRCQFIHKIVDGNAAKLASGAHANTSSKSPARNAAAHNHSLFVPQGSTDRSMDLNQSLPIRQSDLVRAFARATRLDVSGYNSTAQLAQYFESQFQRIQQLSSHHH
The experiment in a line: inhibitors of POS-1/mex-3 RNA binding, dose response, biochemical, fluorescence polarization (AID 1964).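 Further: purified POS-1 fused to maltose binding protein made in E. coli; potency of compounds blocking POS-1 binding to fluorescent RNA.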
Regarding `O=C(CN1CCC(n2nnc3cc(F)ccc32)CC1)NCCc1ccccc1`, the EC50 is listed as > 300 µM (not active).
In the case of `C=CCOc1cccc(C2C(C(=O)c3ccc(C)o3)=C(O)C(=O)N2c2nnc(C)s2)c1` (configuration not stated), the concentration giving a half-maximal response (EC50) is > 300 µM (not active).
The same measure, in the same setting: with `COc1ccc(Nc2nc3ccccc3nc2NS(=O)(=O)c2cccs2)c(OC)c1` the figure was 5.66 µM (active).
Turning to `CCOc1cc(/C=C(\C#N)c2nc3ccccc3[nH]2)ccc1OC(C)C(=O)O` (configuration not stated), the EC50 was 78.5 µM (active).
On to `N#Cc1cc(NC2CCCC2)c([N+](=O)[O-])cc1C#N`, for which the half-maximal effective concentration (EC50) was > 300 µM (not active).
`CC1(C)CC(=O)C2=C(C1)OC(N)=C(C#N)C21C(=O)N(CN2CCOCC2)c2ccccc21` (configuration not stated): the EC50 is > 300 µM (not active).
Same read-out and setting: in the case of `CCC(C)(C)NC(=O)C(c1cccn1C)N(C(=O)Cn1nnc2ccccc21)c1ccc(OC)cc1` (configuration not stated) it was > 300 µM (not active).
Still for that read-out and setting: with `CN1C(=O)C(=Cc2cc3ccccc3nc2O)C(=O)N(C)C1=O` the figure was > 300 µM (not active); with `COc1cccc(N2C(=O)NC(=O)/C(=C/c3ccc4c(c3)Cc3ccccc3-4)C2=O)c1`, > 300 µM (not active).

Test system in the next assay: not listed separately
The assay is described as follows: Luminescence Cell-Based Dose Confirmation HTS to Identify Inhibitors of Platelet Dense Granule Release. [Related pubchem assays: 1663 (Primary HTS), 1678 (Summary of Project)]. The format is functional.
Take `CC(C)n1nc(C(=O)Nc2ccccc2N2CCOCC2)c2ccccc2c1=O`: the EC50 was 26.7 µM (active).
As for `COC(=O)c1cccc([N+](=O)[O-])c1CN1CCCC(C(N)=O)C1` (configuration not stated), the EC50 is given as > 112 µM (not active).
Same read-out and setting: in the case of `O=C(COc1ccc(Cl)cc1)Nc1ccc(Cc2ccncc2)cc1` it was > 112 µM (not active).
Take `COc1cccc(Oc2c(C)oc3c(CN4CCCCC4)c(O)ccc3c2=O)c1`: the 50% effective concentration (EC50) is 19.2 µM (active).
Take `COC(=O)C1=C(C)N=C2SCCC(=O)N2C1c1ccc(OC(=O)c2ccco2)cc1` (configuration not stated): the EC50 was > 112 µM (not active).
Same read-out and setting: in the case of `CCS(=O)(=O)c1ccc2oc(Nc3ccccc3Cl)nc2c1` it was 7.7 µM (active).
On the same count and under the same terms, in the case of `O=C(Nc1ccc(Cl)cn1)c1ccc(-c2ccc(Cl)c(Cl)c2)o1` it was > 112 µM (not active).

For the origin of these results see ChEMBL document CHEMBL1201862, “PubChem BioAssay data set” (2004).
